In patent publication US4130644A, “7-Acylamine-3-(sulfoalkyl substituted oxadiazolylthiomethyl) cephalosporins and pharmaceutical compositions containing them” (SmithKline Corporation, priority 1977, dated 1978) one finds MIC and ED50 data, which are given here for one compound.

In general, MIC refers to the lowest concentration found to suppress growth. A low value points to inhibition by little substance. Broadly, the ED50 is the midpoint of the dose-response relation. Read a high ED50 as weaker potency.

Experiment [1] concerns E. coli HH 33779. As to the kind of experiment: in vitro minimum inhibitory concentration (MIC). The format is cell-based. The note with it: Escherichia coli, HH33779; E. coli HH 33779, in vitro. The protocol: (§1) The compounds of Formula I have exceptional antibacterial activity against both Gram-positive and Gram-negative organisms. Minimum inhibitory concentrations (MIC's) range from 0.2 to <200 μg./ml. in in vitro testing. Test results for the compound 7-D-mandelamido-3-(5-sulfomethyl-1,3,4-oxadiazol-2-ylthiomethyl)-3-cephem- 4-carboxylic acid are given below: […]

Experiment [2] concerns E. coli SK 12140. As to the kind of experiment: in vitro minimum inhibitory concentration (MIC). It is filed as cell-based. The following applies: Escherichia coli, SK12140; E. coli SK 12140, in vitro. The protocol: as §1
Experiment [3] concerns Entero aerog. ATCC 13048. Put plainly: in vitro minimum inhibitory concentration (MIC). It is filed as cell-based. The following applies: Entero aerog. ATCC 13048, in vitro. The protocol:
as §1

The test system of experiment [4] is Entero. cloacae HH 31254. As to the kind of experiment: in vitro minimum inhibitory concentration (MIC). The format is cell-based. The following applies: Enterobacter cloacae, HH31254; Entero. cloacae HH 31254, in vitro. The protocol:
as §1

Experiment [5] has as its system Kleb. pneumo. SK 1200. Put plainly: in vitro minimum inhibitory concentration (MIC). The following applies: Kleb. pneumo. SK 1200, in vitro. The format is cell-based. The protocol: as §1
Experiment [6] has as its system Kleb. pneumo. SK 4200. Put plainly: in vitro minimum inhibitory concentration (MIC). The format is cell-based. The note with it: Kleb. pneumo. SK 4200, in vitro. The protocol: as §1
Experiment [7] relates to Proteus morgani 179. As to the kind of experiment: in vitro minimum inhibitory concentration (MIC). It is filed as cell-based. The following applies: Proteus morgani 179, in vitro. The protocol:
as §1

Experiment [8] concerns Pseudo. aerug. HH 63. As to the kind of experiment: in vitro minimum inhibitory concentration (MIC). The format is cell-based. The note with it: Pseudo. aerug. HH 63, in vitro. The protocol:
as §1

For experiment [9], the system named is S. aureus HH 127. As to the kind of experiment: in vitro minimum inhibitory concentration (MIC). It is filed as cell-based. The note with it: Staphylococcus aureus, HH127; S. aureus HH 127, in vitro. The protocol: as §1
Experiment [10] relates to S. aureus SK 23390. As to the kind of experiment: in vitro minimum inhibitory concentration (MIC). It is filed as cell-based. The following applies: Staphylococcus aureus, SK23390; S. aureus SK 23390, in vitro. The protocol:
as §1

Experiment [11] has as its system S. villaluz SK 70390. Put plainly: in vitro minimum inhibitory concentration (MIC). The format is cell-based. The note with it: S. villaluz SK 70390, in vitro. The protocol:
as §1

The test system of experiment [12] is Salmonella ATCC 12176. As to the kind of experiment: in vitro minimum inhibitory concentration (MIC). The format is cell-based. The following applies: ATCC12176; Salmonella ATCC 12176, in vitro. The protocol:
as §1

The test system of experiment [13] is Serrata marc. ATCC 13880. Put plainly: in vitro minimum inhibitory concentration (MIC). It is filed as cell-based. The note with it: Serrata marc. ATCC 13880, in vitro. The protocol:
as §1

Experiment [14] concerns Shigella HH 117. Put plainly: in vitro minimum inhibitory concentration (MIC). It is filed as cell-based. The following applies: HH117; Shigella HH 117, in vitro. The protocol:
as §1

Experiment [15] concerns Strep. faecalis HH 34358. As to the kind of experiment: in vitro minimum inhibitory concentration (MIC). The note with it: Enterococcus faecalis, HH34358; Strep. faecalis HH 34358, in vitro. It is filed as cell-based. The protocol:
as §1

Experiment [16] deals with E. coli 12140. As to the kind of experiment: in vivo mouse protection test. The note with it: Escherichia coli, sc, E. coli 12140, subcutaneous injection. From the text:
(§2) 4200 upon subcutaneous injection.

For experiment [17], the system named is Kleb. pneumo. 4200. As to the kind of experiment: in vivo mouse protection test. The note with it: sc, Kleb. pneumo. 4200, subcutaneous injection.
Text: as §2

The structures appear in SMILES notation. In brackets after ≈: the same amount, converted by molar mass.

With `O=C(O)C1=C(CSc2nnc(CS(=O)(=O)O)o2)CS[C@@H]2[C@H](NC(=O)[C@H](O)c3ccccc3)C(=O)N12` [7-D-Mandelamido-3-(5-sulfomethyl-1,3,4-oxadiazol-2-ylthiomethyl)-3-cephem-4-carboxylic acid], the MIC in experiment [1] was 3.1 µg/mL (≈ 5.71 µM); in [2] it was 1.6 µg/mL (≈ 2.95 µM); in [3], 3.1 µg/mL (≈ 5.71 µM); in [4], 1.6 µg/mL (≈ 2.95 µM); in experiment [5] it was 0.8 µg/mL (≈ 1.47 µM); in experiment [6], 1.6 µg/mL (≈ 2.95 µM). For the same compound, the MIC in [7] was 25 µg/mL (≈ 46.1 µM); in experiment [8], over 200 µg/mL; in experiment [9] it was 3.1 µg/mL (≈ 5.71 µM); in experiment [10] it was 1.6 µg/mL (≈ 2.95 µM); in experiment [11] it was 200 µg/mL (≈ 369 µM); in [12] it was 1.6 µg/mL (≈ 2.95 µM). Further, the MIC came to 100 µg/mL (≈ 184 µM) in experiment [13], 0.8 µg/mL (≈ 1.47 µM) in [14] and 50 µg/mL (≈ 92.2 µM) in experiment [15]. The ED50 in [16] and in experiment [17] was 1.56 mg/kg throughout.
